Test systems include SK-MEL-5 melanoma; KM12 colon; UO-31 renal; 786-0 renal; MCF7 breast; HCT-116 colon; EKVX NSCLC; BT-549 breast; SK-MEL-2 melanoma; UACC-62 melanoma.
Common to all, as to experiment: growth of human tumour cells (NCI), 48 h

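In this assay, cells in 96-well plates receive the compound at five concentrations for 48 hours. Endpoints are linearly interpolated between the surrounding concentrations. At the GI50, growth is halved. The concentration for full growth arrest is given as TGI.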

Results on seven molecules are retold here after PubChem BioAssay (NCI).

Turning to `N#Cc1ccc(-n2cnc(NC(=O)[C@H]3CCN(C#N)C3)c2)cc1`, the GI50 in the test on SK-MEL-5 melanoma was 2080 nM; in the test with KM12 colon, 1580 nM; in the test on UO-31 renal it was 546 nM; in the test on 786-0 renal it was 2420 nM; in the test with MCF7 breast, under 37.8 nM; in the test on HCT-116 colon it was 1100 nM. Besides, the GI50 was 2380 nM in the test with EKVX NSCLC, 248 nM in the test on BT-549 breast, 935 nM in the test on SK-MEL-2 melanoma and 892 nM with UACC-62 melanoma. The TGI with SK-MEL-5 melanoma is 6.13 µM; in the test with KM12 colon, 11.8 µM; with UO-31 renal, 4 µM; in the test on 786-0 renal it was 9.11 µM; with MCF7 breast, over 100 µM; in the test on HCT-116 colon it was 9.27 µM. The TGI came out at 10.1 µM with EKVX NSCLC, 2470 nM in the test on BT-549 breast, 4.09 µM in the test on SK-MEL-2 melanoma and 4.47 µM with UACC-62 melanoma.
Regarding `NC(=O)c1c(OCc2c(F)cc(Br)cc2F)nsc1NC(=O)NCCCCN1CCCC1`, the GI50 is 1560 nM in the test with SK-MEL-5 melanoma; 2730 nM with KM12 colon; 498 nM in the test on UO-31 renal; 1430 nM in the test on 786-0 renal; 1990 nM in the test with MCF7 breast; 2220 nM with HCT-116 colon. For the same molecule, the GI50 is over 10000 nM in the test with EKVX NSCLC, 6640 nM in the test with BT-549 breast, over 10000 nM with SK-MEL-2 melanoma and 1820 nM with UACC-62 melanoma. For the same molecule, the TGI in the test with SK-MEL-5 melanoma was 2.96 µM; in the test with KM12 colon it was over 10 µM; with UO-31 renal, 2.1 µM; with 786-0 renal, 4.42 µM; in the test with MCF7 breast, over 10 µM; with HCT-116 colon, 8.41 µM. For the same molecule, the TGI in the test on EKVX NSCLC is over 10 µM; in the test with BT-549 breast, over 10000 nM; in the test with SK-MEL-2 melanoma it was over 10 µM; with UACC-62 melanoma it was 3.93 µM.
For `Nc1cc(C(F)F)c(-c2nc(N3[C@@H]4CC[C@H]3COC4)nc(N3[C@@H]4CC[C@H]3COC4)n2)cn1`, the GI50 is 407 nM with SK-MEL-5 melanoma; 569 nM with KM12 colon; 119 nM in the test on UO-31 renal; 306 nM in the test with 786-0 renal; 189 nM in the test on MCF7 breast; 769 nM in the test with HCT-116 colon. The GI50 with EKVX NSCLC is 277 nM; with BT-549 breast it was 179 nM; in the test on SK-MEL-2 melanoma, 388 nM; with UACC-62 melanoma it was 212 nM. Moreover, the TGI with SK-MEL-5 melanoma is 4.48 µM; with KM12 colon it was over 100 µM; with UO-31 renal it was 6.85 µM; in the test with 786-0 renal it was 14.3 µM; with MCF7 breast, over 100 µM; in the test on HCT-116 colon, over 100 µM. In addition, the TGI with EKVX NSCLC was 6.61 µM; with BT-549 breast, 2770 nM; in the test with SK-MEL-2 melanoma, 4.96 µM; in the test with UACC-62 melanoma, 2.2 µM.
`C/C=C(/C)C(=O)OC1C=C(CO)C(=O)C(OC(=O)/C(C)=C\C)C1C(C)C` (stereo not given): the GI50 is 1330 nM in the test on SK-MEL-5 melanoma; 1450 nM with KM12 colon; 1290 nM with UO-31 renal; 1080 nM in the test on 786-0 renal; 416 nM in the test with MCF7 breast; 490 nM in the test on HCT-116 colon. For the same molecule, the GI50 was 1750 nM in the test with EKVX NSCLC, 1450 nM with BT-549 breast, 1820 nM in the test on SK-MEL-2 melanoma and 644 nM with UACC-62 melanoma. Further, the TGI is 2.66 µM with SK-MEL-5 melanoma; 3.02 µM with KM12 colon; 2.57 µM in the test with UO-31 renal; 2.63 µM in the test on 786-0 renal; 2.16 µM in the test on MCF7 breast; 1.67 µM in the test with HCT-116 colon. Besides, the TGI in the test with EKVX NSCLC is 3.22 µM; in the test with BT-549 breast, 2880 nM; in the test on SK-MEL-2 melanoma, 3.47 µM; in the test with UACC-62 melanoma it was 1.98 µM.
`CCC(=S)N(C)O`: the TGI in the test with SK-MEL-5 melanoma is 51 µM; in the test on KM12 colon, over 93.1 µM; in the test on UO-31 renal it was 68.9 µM; with 786-0 renal it was over 81.1 µM; in the test with MCF7 breast it was over 100 µM; with HCT-116 colon, 30.9 µM. The TGI in the test on EKVX NSCLC was over 100 µM; with BT-549 breast it was over 100000 nM; in the test with SK-MEL-2 melanoma it was 86.6 µM; in the test on UACC-62 melanoma, 78.3 µM.
Consider `COc1ccc2[nH]cc(/C=C3\C(=O)Nc4ccccc43)c2c1`, for which the GI50 in the test on SK-MEL-5 melanoma was 3430 nM; in the test on KM12 colon, 246 nM; with UO-31 renal it was 6940 nM; in the test with 786-0 renal, 11900 nM; with MCF7 breast, 2450 nM; with HCT-116 colon it was 3410 nM. For the same molecule, the GI50 with EKVX NSCLC was 2730 nM; in the test on BT-549 breast, 2900 nM; with SK-MEL-2 melanoma, 10200 nM; with UACC-62 melanoma it was 4090 nM. Moreover, the TGI in the test with SK-MEL-5 melanoma was found to be 15.2 µM; with KM12 colon it was 13 µM; in the test on UO-31 renal it was 32.4 µM; with 786-0 renal, 30.2 µM; with MCF7 breast, 10.5 µM; in the test with HCT-116 colon, 14.5 µM. The TGI with EKVX NSCLC came to 15.1 µM; in the test on BT-549 breast, 21400 nM; in the test with SK-MEL-2 melanoma, 29.2 µM; in the test on UACC-62 melanoma, 20.6 µM.
As to `O=C(O)[C@@H]1C[C@@H](O)CN1`, the TGI in the test with SK-MEL-5 melanoma, in the test on KM12 colon, in the test with UO-31 renal, in the test on 786-0 renal, with MCF7 breast and in the test on HCT-116 colon was over 100 µM throughout. In addition, the TGI with EKVX NSCLC was over 100 µM; with BT-549 breast it was over 100000 nM; with SK-MEL-2 melanoma, over 100 µM; in the test with UACC-62 melanoma, over 100 µM.
